Results published in patent publication US6121248A, “Anti-viral agent” (priority 1998, dated 2000).
Converted amounts (≈) assume the structure as drawn. Like-named read-outs stand apart in the source and are kept apart here.

Experiments:
[1] = test system: varicella-zoster virus; assay: Anti-viral activity against varicella-zoster virus, microplaque reduction method; assay type: cell-based, varicella-zoster virus (HOSEN strain); conditions: for EC50: Human alphaherpesvirus 3, MRC5, 72 h, varicella-zoster virus HOSEN strain, MRC-5 cells, 35° C., day 3, read-out: ED50 (50% effective density); for SI (selectivity index, CC50/ED50): varicella-zoster virus
Protocol: Determination of Anti-viral Activity against Varicella-zoster Virus
(§1) The anti-viral activity against varicella-zoster virus was determined by the microplaque reduction method. That is, MRC-5 cells were cultured in a 96-well microtiter plate until the cells reached the confluent state. Each of the compounds being tested was added to the wells to which a preparation of varicella-zoster virus (HOSEN strain) was subsequently added. The plate was cultured at 35° C. in a CO2 incubator. On day 3 after the culture, physiological saline containing 10% formalin was added to the wells and the plate was allowed to stand overnight to fix the cells to the wells. After wasing the plate, the cells were stained with a crystal violet solution and then washed. The focus formation by varicella-zoster virus was observed microscopically and the number of the foci was counted.
(§2) The concentration of each compound that inhibits by 50% of the number of foci observed in a group containing no compound was determined as a 50% effective density (ED50).
(§3) The selectivity index (SI), which is the ratio of the cytotoxic concentration to the anti-virally effective density, was determined by the equation: […]

[2] = Cytotoxicity in virus-free MRC-5 cells (Example 1); assay type: cell-based; conditions: human
Protocol: as §1
The virus-free group in which, in place of the preparation of varicella-zoster virus, the culture medium was added to the MRC-5 cells was also cultured in the same manner.

[3] = test system: cytomegalovirus; assay: Anti-viral activity against cytomegalovirus, microplaque reduction method; assay type: cell-based, human cytomegalovirus (AD 169 strain); conditions: for EC50: Human betaherpesvirus 5, MRC5, 144 h, human cytomegalovirus AD 169 strain, MRC-5 cells, 37° C., day 6, read-out: ED50 (50% effective density); for SI (selectivity index, CC50/ED50): cytomegalovirus
Protocol: Determination of Anti-viral Activity against Cytomegalovirus
(§4) The anti-viral activity against cytomegalovirus was also determined by the microplaque reduction method in the same manner as in Example 1. That is, MRC-5 cells were cultured in a 96-well microtiter plate until the cells reached the confluent state. Each of the compounds being tested was added to the wells to which a preparation of human cytomegalovirus (AD 169 strain) was subsequently added. The plate was cultured at 37° C. in a CO2 incubator. On day 6 after the culture, physiological saline containing 10% formalin was added to the wells and the plate was allowed to stand overnight to fix the cells to the wells. After washing the plate, the cells were stained with a crystal violet solution and then washed. The focus formation by cytomegalovirus was observed microscopically and the number of the foci was counted.
as §2, §3

[4] = Cytotoxicity in virus-free MRC-5 cells (Example 2); assay type: cell-based; conditions: human
Protocol: as §4
The virus-free group in which, in place of the preparation of cytomegalovirus, the culture medium was added to the MRC-5 cells was also cultured in the same manner.

[5] = Acute toxicity test, variation of body weight of mice; assay type: in vivo, Mouse: ICR; conditions: 1 or 2 g/kg ip., male ICR mice
Protocol: With respect to 2-thio-5-iodocytosine arabinoside (5-I-AraSC) which was evidenced to have the anti-viral effect in vitro, the acute toxicity was also determined in the following manner.
Mouse: ICR, male, 4 weeks;
Drug: 5-I-AraSC, 1 or 2 g/kg, ip., n=6.
The drug 5-I-AraSC was administered in a dosage of 1 or 2 g/kg to each mouse intraperitoneally, and the variation of a body weight of each mouse was examined.

[6] = MRC-5 cells, virus-free, cultured as in varicella-zoster test (day 3), read-out: CC50 (50% cytotoxic concentration)

Row | SMILES | EC50 [1] | SI (selectivity index, CC50/ED50) [1] | CC50 at 72 h [2, 6] | CC50 at 72 h ([2]; mrc-5 cells) | EC50 [3] | SI (selectivity index, CC50/ED50) [3] | CC50 at 144 h ([4]; mrc-5 cells) | death of the mice ([5]; during the test) | acute toxicity ([5]; overall conclusion) | CC50 at 144 h ([4]; MRC-5 cells, virus-free, cultured as in cytomegalovirus test (day 6), read-out: CC50 (50% cytotoxic concentration))
1 | O=c1[nH]c(=S)n([C@@H]2O[C@H](CO)[C@@H](O)[C@@H]2O)cc1I [2-thio-5-iodouracil arabinoside] | 3.1 mg/L (≈ 8.03 µM) | 6.5 | 20 mg/L (≈ 51.8 µM) |  |  |  |  |  |  | 
2 | Nc1nc(=S)n([C@@H]2O[C@H](CO)[C@@H](O)[C@@H]2O)cc1I [2-thio-5-iodocytosine arabinoside] | 0.7 mg/L (≈ 1.82 µM) | > 143 |  | > 100 mg/L | 0.26 mg/L (≈ 0.675 µM) | > 385 | > 100 mg/L | No death of the mice was observed during the test | not so strong | 
3 | Nc1nc(=S)n([C@@H]2O[C@H](CO)[C@@H](O)[C@@H]2O)cc1Br [2-thio-5-bromocytosine arabinoside] | 7.5 mg/L (≈ 22.2 µM) | > 13 |  | > 100 mg/L | 2.4 mg/L (≈ 7.1 µM) | > 42 | > 100 mg/L |  |  | 
4 | Nc1nc(=S)n([C@@H]2O[C@H](CO)[C@@H](O)[C@@H]2O)cc1F [2-thio-5-fluorocytosine arabinoside] | 1.65 mg/L (≈ 5.95 µM) | > 60 | > 100 mg/L |  | 0.16 mg/L (≈ 0.577 µM) | > 625 |  |  |  | > 100 mg/L
